# Experimental data reported in patent US9284541B2, “Methods and compositions for protein labeling using lipoic acid ligases” (Massachusetts Institute of Technology, priority 2007, dated 2016).
# Entries after “also recorded” stand apart in the source; their conditions may differ.
# Legend:
# [1] = test system: mitochondrial respiration; assay: Effect of azide 7 on mitochondrial respiration; assay type: cell-based; conditions: 24-hour exposure, concentrations less than 750 μM
# [2] = molecular target: T1, LplA (Escherichia coli, UniProt P32099); assay: In vitro LplA activity assay: probe ligation onto E2p (HPLC); assay type: biochemical, E. coli; conditions: 350 μM probe, 200 μM E2p, 30 minutes
# Method: LplA reactions contained 2 μM LplA, 200 μM E2p, 350 μM probe, 1 mM ATP, 2 mM magnesium acetate, and 25 mM sodium phosphate pH 7.0. Reactions were incubated at 30° C. for 30 minutes, and then quenched with EDTA (final concentration 50 mM). Conversion to product was determined by HPLC on a C18 reverse-phase column with a 40-57% gradient of acetonitrile in water with 0.1% trifluoroacetic acid over 20 minutes (flow rate 1.0 mL/minute). […] Percent conversion to product was calculated from the ratio of the E2p-probe peak area to the sum of (E2p+E2p-probe) peak areas. All measurements were performed in triplicate.
# [3] = molecular target: T2, E. coli LplA (Escherichia coli, UniProt P32099); assay: Measurement of LplA-probe ligation kinetics (HPLC); assay type: biochemical
# T2 sequence (P32099 2-338 limits assumed): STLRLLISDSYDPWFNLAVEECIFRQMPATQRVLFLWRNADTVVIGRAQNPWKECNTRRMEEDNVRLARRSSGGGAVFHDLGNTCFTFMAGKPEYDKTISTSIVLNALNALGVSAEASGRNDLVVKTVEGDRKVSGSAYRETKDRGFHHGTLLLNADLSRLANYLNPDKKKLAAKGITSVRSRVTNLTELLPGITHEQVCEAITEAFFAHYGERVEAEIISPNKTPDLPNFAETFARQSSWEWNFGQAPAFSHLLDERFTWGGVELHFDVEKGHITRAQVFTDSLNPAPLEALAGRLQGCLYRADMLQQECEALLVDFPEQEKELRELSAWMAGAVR
# Method: To measure the kcat for LplA ligation of lipoic acid to E2p, 50 nM LplA was combined with 200 μM E2p, 750 μM lipoic acid, […], and 2 mM magnesium acetate in 25 mM sodium phosphate pH 7.0. The reaction was initiated with addition of 1 mM ATP to the pre-warmed (30° C.) mixture. The reaction was incubated at 30° C., and 90 μL aliquots were removed every 5 minutes and quenched with 50 mM EDTA (final concentration). Samples were analyzed by C18 reverse-phase HPLC as described in the “Methods” section. Measurements were performed in triplicate. A calibration curve was obtained that correlated the ratio of integrated HPLC peak areas (E2p:E2p-probe) to the actual protein ratio, in order to compensate for differences in the extinction coefficients of E2p and lipoylated E2p. The amount of product obtained at each time point was plotted against time, to obtain the Vmax of the reaction. From this, the kcat value was obtained using the equation Vmax=kcat [E]total.
# 90 μL aliquots were removed from the 30° C. reactions at 5 minutes intervals, up to 30 minutes, and quenched with 50 mM EDTA (final concentration). Samples were analyzed by HPLC as above. The amount of product obtained at each time point was plotted against time, to obtain the initial velocity for each concentration of azide 7. […] From the Vmax value, kcat was calculated using the equation Vmax=kcat [E]total.
# [4] = molecular target: T1, LplA; assay: HPLC analysis of LplA modification of HP1-peptide fusions; kcat of azide 7 ligation to LAP; assay type: biochemical, E. coli; conditions: C-terminal fusion to HP1 versus peptide 8
# Method: To compare the conversion rates for different peptide substrates, reactions were assembled as follows: 1.5 μM LplA, 150 μM HP1-peptide fusion, 750 μM azide 7, 1 mM ATP, and 2 mM magnesium acetate in 25 mM sodium phosphate pH 7.0. Reactions were incubated at 30° C. for 2 hours, then quenched with 50 mM EDTA (final concentration), and subsequently analyzed by C18 reverse-phase HPLC using a gradient of 30-45% acetonitrile in water with 0.1% trifluoroacetic acid over 20 minutes with a 1 mL/minute flow rate. Retention times for unmodified HP1-peptide fusions ranged from 8-12 minutes, and shifted to 16-21 minutes after ligation to azide 7. Measurements were performed in triplicate. The extent of modification was calculated from the ratio of HP1-peptide-azide 7 peak area to the sum of (HP1-peptide+HP1-peptide-azide 7) peak areas.
compound,measurement,setting,value
"[N-]=[N+]=NCCCCCCCC(=O)O [azide 7, 8-azidooctanoic acid]",effect on mitochondrial respiration,[1],no effect
same,incorporation / ligation kinetics by LplA,[2],fastest kinetics; also recorded: best kinetics
same,Kcat relative to the measured Kcat for lipoic acid ligation,[3]; ligation to E2p,2.3 fold
O=C(O)CCCC[C@@H]1CCSS1 (racemic) [lipoic acid],kcat of LplA-catalyzed ligation to E2p,"[3]; 30° C., pH 7.0",0.253 ± 0.003 s⁻¹
peptide 9: peptide 8 fused to the C-terminal end of HP1 (SEQ ID NO: 9) (DEVLVEIETDKAVLEVP),drop of lipoylation rate,[4],5 fold
